Columns and labels:
Assay in all cases: relative viability (nuclei count vs DMSO), 5 days (fraction); higher = more cells survive
[1] = compound: N#CC[C@H](C1CCCC1)n1cc(-c2ncnc3[nH]ccc23)cn1 [Ruxolitinib] + Cc1nc(Nc2ncc(C(=O)Nc3c(C)cccc3Cl)s2)cc(N2CCN(CCO)CC2)n1 [Dasatinib] (partner 0.075 µM)
Summary of the method: (§1)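 Five library-drug doses in √10 steps were combined with a fixed anchor-drug dose, or a single drug was given alone, by pin tool to lung cancer cell lines in 1536-well plates the day after seeding. Nuclei were stained and counted after 5 days. Relative viability is the nuclei count in treated wells over that in vehicle wells, taken as the median of duplicate plates.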

[2] = compound: N#CC[C@H](C1CCCC1)n1cc(-c2ncnc3[nH]ccc23)cn1 [Ruxolitinib] + Cc1cc(Nc2cc(N3CCN(C)CC3)nc(Sc3ccc(NC(=O)C4CC4)cc3)n2)n[nH]1 [Tozasertib] (partner 0.1 µM)
Summary of the method: as §1

[3] = compound: CS(=O)(=O)c1ccc(C(=O)Nc2ccc(Cl)c(-c3ccccn3)c2)c(Cl)c1 [Vismodegib] + O=C(CCCCCCC(=O)Nc1ccccc1)NO [Vorinostat] (partner 1 µM)
Summary of the method: as §1

[4] = compound: CS(=O)(=O)c1ccc(C(=O)Nc2ccc(Cl)c(-c3ccccn3)c2)c(Cl)c1 [Vismodegib] + Cc1nc(NC(=O)N2CCC[C@H]2C(N)=O)sc1-c1ccnc(C(C)(C)C(F)(F)F)c1 [Alpelisib] (partner 2 µM)
Summary of the method: as §1

Cell Line | relative viability ([1]; first compound 0.08 µM) | relative viability ([1]; first compound 0.253 µM) | relative viability ([1]; first compound 0.8 µM) | relative viability ([1]; first compound 2.53 µM) | relative viability ([1]; first compound 8 µM) | relative viability ([2]; first compound 0.08 µM) | relative viability ([2]; first compound 0.253 µM) | relative viability ([2]; first compound 0.8 µM) | relative viability ([2]; first compound 2.53 µM) | relative viability ([2]; first compound 8 µM) | relative viability ([3]; first compound 0.08 µM) | relative viability ([3]; first compound 0.253 µM) | relative viability ([3]; first compound 0.8 µM) | relative viability ([3]; first compound 8 µM) | relative viability ([4]; first compound 0.08 µM) | relative viability ([4]; first compound 0.253 µM) | relative viability ([4]; first compound 0.8 µM) | relative viability ([4]; first compound 2.53 µM) | relative viability ([4]; first compound 8 µM) | relative viability ([3]; first compound 2.53 µM)
SW 900 | 0.675 | 0.487 | 0.542 | 0.403 | 0.489 | 0.581 | 0.649 | 0.499 | 0.534 | 0.625 | 0.457 | 0.415 | 0.435 | 0.602 | – | – | – | – | – | –
NCI-H358 | 0.189 | 0.131 | 0.175 | 0.135 | 0.164 | 0.102 | 0.0986 | 0.102 | 0.102 | 0.0752 | 0.831 | 0.677 | 0.696 | 0.728 | 0.75 | 0.916 | 0.695 | 0.868 | 1.04 | 0.68
ChaGo-K-1 | 0.631 | 0.573 | 0.548 | 0.548 | 0.403 | 0.246 | 0.243 | 0.454 | 0.176 | 0.195 | 0.761 | 0.739 | 0.799 | 0.708 | – | – | – | – | – | 0.754
NCI-H1755 | 0.473 | 0.394 | 0.472 | 0.341 | 0.213 | 0.561 | 0.525 | 0.622 | 0.616 | 0.557 | 0.836 | 0.659 | 0.85 | 0.762 | 0.921 | 0.912 | 0.957 | 0.868 | 0.942 | 0.809
LCLC-103H | 0.418 | 0.448 | 0.564 | 0.382 | 0.362 | 0.492 | 0.519 | 0.595 | 0.552 | 0.501 | 0.74 | 0.733 | 0.613 | 0.539 | 1.05 | 0.973 | 0.908 | 0.978 | 0.947 | 0.749
HCC-827 | 0.133 | 0.3 | 0.346 | 0.231 | 0.199 | – | 0.342 | 0.35 | 0.397 | 0.386 | 0.878 | 0.903 | 0.909 | 0.861 | 0.982 | 0.993 | 0.972 | 0.998 | 0.949 | 0.774
HCC-44 | – | – | – | – | – | 0.953 | 1.11 | 1.15 | 0.804 | 0.761 | 1.21 | 1.02 | 1.1 | 1.11 | 0.787 | 0.771 | 0.717 | 0.799 | 0.818 | 1.08
NCI-H727 | 0.396 | 0.303 | 0.456 | 0.469 | 0.451 | 0.663 | 0.818 | 0.674 | 0.567 | 0.589 | 1.21 | 1.32 | 1.1 | 1.2 | 0.601 | 0.563 | 0.555 | 0.529 | 0.611 | 1.18
NCI-H1563 | 0.446 | 0.481 | 0.452 | 0.43 | 0.402 | – | – | – | – | – | – | – | – | – | 0.896 | 0.88 | 1.01 | 0.889 | 1.02 | –
NCI-H1650 | – | 0.265 | 0.343 | 0.252 | 0.29 | – | 0.503 | 0.386 | 0.455 | 0.357 | 0.568 | 0.523 | 0.48 | 0.569 | – | – | – | – | – | 0.543
COR-L 105 | 0.313 | 0.295 | 0.326 | 0.214 | 0.23 | 0.383 | 0.314 | 0.423 | 0.475 | 0.35 | 0.94 | 0.803 | 0.829 | 0.71 | 0.832 | 0.882 | 0.847 | 0.839 | 0.868 | 0.826
COR-L23 | 0.483 | 0.534 | 0.521 | 0.386 | 0.341 | 0.204 | 0.217 | 0.204 | 0.192 | 0.146 | 0.408 | 0.478 | 0.388 | 0.451 | 0.77 | 0.672 | 0.689 | 0.756 | 0.819 | 0.384
NCI-H596 | 0.581 | 0.654 | 0.585 | 0.575 | 0.496 | 0.827 | 0.897 | 0.962 | 0.955 | 0.799 | 0.682 | 0.65 | 0.609 | 0.642 | 0.438 | 0.448 | 0.51 | 0.472 | 0.545 | 0.486
NCI-H322M | 0.248 | 0.258 | 0.241 | 0.238 | 0.217 | 0.451 | 0.503 | 0.457 | 0.458 | 0.482 | 0.925 | 0.842 | 0.848 | 0.855 | 0.813 | 0.756 | 0.744 | 0.917 | 0.773 | 0.851
H3255 | 0.301 | 0.402 | 0.421 | 0.282 | 0.31 | 0.612 | 0.568 | 0.841 | 0.56 | 0.682 | 0.488 | 0.747 | 0.915 | 0.782 | 0.75 | 0.676 | 0.764 | 0.752 | 0.543 | 0.835
